The record followed here is US20230119539A1, “TRACELESS LINKERS AND PROTEIN-CONJUGATES THEREOF” (Regeneron Pharmaceuticals, Inc., priority 2019, published 2023).

For orientation: CLint scaled means a measure of how fast metabolising enzymes remove a compound, apart from limits set by blood flow. As a reminder, the half-life is how long it takes for the measured level to halve. Lower therefore signals fast loss. The EC50 is the concentration that produces a half-maximal response. Read a high EC50 as a need for much substance.

A short description of series [1]: Metabolic stability with human liver microsomes. The series is classed as in vitro ADME. Particulars: for Area ratio of III formed from PIII-1 / Percent Remaining (%): Mean. On the procedure: The metabolic stability of payload PIII-1 incubated with human liver microsomes was evaluated and the results were shown in the Table 7e below.
The nature of series [2]: pH stability of quenched linker-payloads in buffers (LCMS). The series is classed as physicochemical. Particulars: for LP: percentage of linker-payloads remaining: buffer, 0.2 mg/mL. On the procedure:
To a solution of compound (payloads or quenched-linker-payloads) in DMSO (0.2-1.0 mg/mL) was added corresponding PBS buffer (V(buffer)/V(DMSO)=5) to give test samples (pH 3, 4, 5, 6, 7.4, and 8.5, or other special pH). The test samples were incubated at RT for at least 3 days and monitored by LCMS (i.e., at 1 hr, 2 hr, 4 hr, 8 hr, and 1 day, 2 day, 3 day, 4 day, 5 day, 6 day, 7 day, 8 day, 9 day, and 21 day time points). Initial concentrations of the samples were 0.2 mg/mL (DMSO/buffer, v/v=1/5). […] The payloads and quenched linker-payloads were mostly stable at pH >5.0, 6.0, 7.4 and 8.5 after 3 days. In more acidic conditions, such as pH 1.0, the payloads or linker-payloads were easily cleaved to release D*-OH.

Series [3] addresses T1, GR (Homo sapiens, UniProt P04150).
T1 construct: host or cells: HEK293 (HEK293/GRLuc; HEK293/GRLuc/MSR1 additionally transduced with human MSR1)
T1 sequence (P04150 524-758 limits assumed): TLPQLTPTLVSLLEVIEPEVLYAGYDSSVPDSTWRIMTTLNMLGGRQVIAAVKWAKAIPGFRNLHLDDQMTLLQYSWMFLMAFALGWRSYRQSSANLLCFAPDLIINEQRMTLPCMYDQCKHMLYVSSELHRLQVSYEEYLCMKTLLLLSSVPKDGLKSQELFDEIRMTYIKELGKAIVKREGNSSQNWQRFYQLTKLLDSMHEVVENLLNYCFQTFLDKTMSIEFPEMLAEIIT
The experiment in a line: GR luciferase reporter assay in HEK293/GRLuc cells. Type of series: cell-based. The following applies: Table 8, ncADCs; for EC50: 48 hours; for S/N: highest RLU / RLU of untreated wells. On the procedure: Activity of anti-MSR1 ncADCs were tested using an MSR1 ADC steroid responsive luciferase reporter assay. To generate the assay cell line, HEK293 cells were co-transfected with the pBind-GR (Promega, Cat #E158A) and pGL4.35 [Luc2P/9xGAL4UAS/Hygro] (Promega, Cat #E137A) vectors. The pBind-GR vector expresses a fusion protein consisting of the GR ligand binding and the yeast Gal4DNA-binding domain, which binds to the Gal4 upstream activation sequence (UAS) in the luciferase expression vector, that can induce luciferase expression following GR agonist binding. The cells were selected for at least 2 weeks in G418+hygromycin and the resulting cell line is referred to as HEK293/GRLuc. HEK293/GRLuc cells were then transduced with a human MSR1 lentiviral expression vector and 48 hours later cells were sorted for MSR1 positive cells. The resulting cell line is referred to as HEK293/GRLuc/MSR1.
Three-fold serial dilutions of ncADCs in assay buffer were added to the cells for 48 hours. The last well in the plate served as blank control containing only the assay media and was plotted as a continuation of the 3-fold serial dilution. Luciferase activity was determined using the One-Glo™ reagent (Promega, Cat #E6130). Relative light units (RLUs) were measured on an Envision luminometer (PerkinElmer) and EC50 values were determined using a four-parameter logistic equation over a 10-point dose response curve (GraphPad Prism). The signal to noise (S/N) was determined by taking the ratio of the highest RLU on the dose response curve to the RLU in the untreated wells.
To test the activity of GR agonist payloads disclosed herein, a cell-based GR responsive luciferase reporter assay was developed as described above.
Three-fold serial dilutions of free payloads were prepared in 100% DMSO, transferred to fresh assay media, and added to the cells for 48 hours. […] The last well in the plate served as blank control containing only the assay media and 0.2% DMSO (untreated well) and was plotted as a continuation of the 3-fold serial dilution. Luciferase activity was determined using the One-Glo™ reagent (Promega, Cat #E6130). Relative light units (RLUs) were measured on an Envision luminometer (PerkinElmer) and EC50 values were determined using a four-parameter logistic equation over a 10-point dose response curve (GraphPad Prism). The signal to noise (S/N) was determined by taking the ratio of the highest RLU on the dose response curve to the RLU in the untreated wells.
(In general: Reporter assays use an easily measured gene product as a stand-in for the process of interest.)

For series [4], the target named is T2, human macrophage scavenger receptor 1 (MSR1) (human, UniProt P21757 1-451).
T2 sequence (looked up): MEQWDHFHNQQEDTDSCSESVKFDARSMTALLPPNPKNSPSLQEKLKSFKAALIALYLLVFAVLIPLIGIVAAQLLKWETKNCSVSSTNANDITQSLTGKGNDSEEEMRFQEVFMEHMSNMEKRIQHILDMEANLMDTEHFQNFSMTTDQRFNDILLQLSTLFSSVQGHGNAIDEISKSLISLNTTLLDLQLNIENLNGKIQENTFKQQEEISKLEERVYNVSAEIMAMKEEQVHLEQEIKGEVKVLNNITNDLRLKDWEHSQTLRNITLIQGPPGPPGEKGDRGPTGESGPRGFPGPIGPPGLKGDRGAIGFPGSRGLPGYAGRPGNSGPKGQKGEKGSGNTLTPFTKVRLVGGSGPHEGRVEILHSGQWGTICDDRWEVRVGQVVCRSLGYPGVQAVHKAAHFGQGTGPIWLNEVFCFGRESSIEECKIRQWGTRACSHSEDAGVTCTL
In words: cell-based or functional assay.

Regarding `CCCC1O[C@@H]2C[C@H]3[C@@H]4C[C@H](F)C5=CC(=O)C=C[C@]5(C)[C@@]4(F)[C@@H](O)C[C@]3(C)[C@]2(C(=O)CO)O1` (some centres unmarked) [III from P11I-1], the “Area ratio of III formed from PIII-1” value in series [1] (0 min) is recorded as “BQL”; in series [1] (5 min), 0.001; in series [1] (15 min), 0.002; in series [1] (30 min) it was 0.001; in series [1] (45 min), 0.001.
With `CCCC1O[C@@H]2C[C@H]3[C@@H]4CCC5=CC(=O)C=C[C@]5(C)[C@H]4[C@@H](O)C[C@]3(C)[C@]2(C(=O)COCNC(=O)CNC(=O)OCc2ccc(O[C@@H]3O[C@H](CO)[C@@H](O)[C@H](O)[C@H]3O)c(C(=O)NCCNC(=O)COC3C#CCCCCC3)c2)O1` (some centres unmarked) [L18-PII-1, COT-EDA-(GLC)PAB-G-NHCH2-Bud], the “LP: percentage of linker-payloads remaining” value in series [2] (1 day, pH 4) is listed as 100%; in series [2] (1 day, pH 5), 100%; in series [2] (1 day, pH 6), 100%; in series [2] (1 day, pH 7.4) it was 100%; in series [2] (2 day, pH 4), 100%; in series [2] (2 day, pH 5), 100%. Further, the “LP: percentage of linker-payloads remaining” value in series [2] (2 day, pH 6) came to 100%; in series [2] (2 day, pH 7.4) it was 100%; in series [2] (7 day, pH 4) it was 100%; in series [2] (7 day, pH 5), 100%; in series [2] (7 day, pH 6), 100%; in series [2] (7 day, pH 7.4), 100%. Also, the “P: percentage of budesonide released from the linker-payloads” value (from here on “P: percentage of budesonide released”) in series [2] (pH 4.0, day 1) is 0%; in series [2] (pH 4.0, day 2), 0%; in series [2] (pH 4.0, day 7) it was 0%; in series [2] (pH 5.0, day 1) it was 0%; in series [2] (pH 5.0, day 2), 0%; in series [2] (pH 5.0, day 7), 0%. Moreover, the “P: percentage of budesonide released” value in series [2] (pH 6.0, day 1) came to 0%; in series [2] (pH 6.0, day 2), 0%; in series [2] (pH 6.0, day 7) it was 0%; in series [2] (pH 7.4, day 1), 0%; in series [2] (pH 7.4, day 2), 0%; in series [2] (pH 7.4, day 7), 0%.
In the case of `CCCC1O[C@@H]2C[C@H]3[C@@H]4CCC5=CC(=O)C=C[C@]5(C)[C@H]4[C@@H](O)C[C@]3(C)[C@]2(C(=O)COC2CCCN2C(=O)CNC(=O)CCOCCOCCOCCOCCNC(=O)CCC(=O)N2Cc3ccccc3-c3c(nnn3CCOCCOCCOCCOCCC(=O)NCCS(=O)(=O)O)-c3ccccc32)O1` (some centres unmarked) [Q1L6-PII-9], the “LP: percentage of linker-payloads remaining” value is on record as 30% in series [2] (1 day, pH 4); 100% in series [2] (1 day, pH 6); 100% in series [2] (1 day, pH 7.4); 10% in series [2] (2 day, pH 4); 100% in series [2] (2 day, pH 6); 100% in series [2] (2 day, pH 7.4). In addition, the “LP: percentage of linker-payloads remaining” value was found to be 0% in series [2] (7 day, pH 4); 92% in series [2] (7 day, pH 6); 100% in series [2] (7 day, pH 7.4). Moreover, the “P: percentage of budesonide released” value in series [2] (pH 4.0, day 1) turned out to be 69%; in series [2] (pH 4.0, day 2), 89%; in series [2] (pH 4.0, day 7) it was 99%; in series [2] (pH 5.0, day 1), 5%; in series [2] (pH 5.0, day 2), 10%; in series [2] (pH 5.0, day 7), 28%. Further, the “P: percentage of budesonide released” value in series [2] (pH 6.0, day 1) is 0%; in series [2] (pH 6.0, day 2), 0%; in series [2] (pH 6.0, day 7), 8%; in series [2] (pH 7.4, day 1) it was 0%; in series [2] (pH 7.4, day 2), 0%; in series [2] (pH 7.4, day 7), 0%.
`O=C(c1ccc(F)cc1)C1CCN(CCn2c(=O)[nH]c3ccccc3c2=O)CC1` [ketanserin]: the “Percent Remaining (%)” value in series [1] (0 min) was found to be 100.00%; in series [1] (5 min) it was 81.45%; in series [1] (15 min) it was 67.51%; in series [1] (30 min), 41.90%; in series [1] (45 min) it was 36.47%. The molecule also gave a CLint scaled in series [1] (human) of 55.2 mL/min/kg. Further, the half-life in series [1] (human) worked out at 31.5 min.

B1: H1H21234N-N297Q-L4-PIII-1 (antibody, V domains shown)
VH: QVQLQESGPGLVKPSETLSLTCTVTGGSISRNYWSWIRQPPGKGLEWIGYIYYSGSIDYNPSLKSRVTISVDTSKNQFSLKLSSMTAADTAVYYCARDRWNWKYGMDVWGQGTTVIVSS
VL: EIVLTQSPGTLSLSPGERATLSCRASQTVRNNYLAWYHQKPGQAPRLLIYGASSRATGIPDRFSGSGSGTDFTLTISRLEPEDFTVYYCHQYGNSPWTFGQGTKMEIKR
modifications: heavy-chain constant region (not part of this entry): N297Q (EU); linker-payload L4-PIII-1 (DIBAC-suc-GGF-PIII-1) clicked onto azido-PEG3-amine on glutamines; DAR 4
As to B1, in series [3], the half-maximal effective concentration (EC50) is 51.4 nM and the S/N is reported as 25.5. Also, in series [4], the “EC50, GR luciferase reporter activity in HEK293/GRLuc/MSR1 cells” value came to 0.117 nM and the “S/N (highest RLU / RLU in untreated wells), HEK293/GRLuc/MSR1 cells” value turned out to be 148.

B2: H1H21234N-N297Q-L5-PIII-1 (antibody, V domains shown)
VH: QVQLQESGPGLVKPSETLSLTCTVTGGSISRNYWSWIRQPPGKGLEWIGYIYYSGSIDYNPSLKSRVTISVDTSKNQFSLKLSSMTAADTAVYYCARDRWNWKYGMDVWGQGTTVIVSS
VL: EIVLTQSPGTLSLSPGERATLSCRASQTVRNNYLAWYHQKPGQAPRLLIYGASSRATGIPDRFSGSGSGTDFTLTISRLEPEDFTVYYCHQYGNSPWTFGQGTKMEIKR
modifications: heavy-chain constant region (not part of this entry): N297Q (EU); linker-payload L5-PIII-1 (DIBAC-suc-SGGG-PIII-1) clicked onto azido-PEG3-amine on glutamines; DAR 4
In the case of B2, in series [3], the EC50 was determined as 41.7 nM and the S/N was 13.2. Moreover, in series [4], the “EC50, GR luciferase reporter activity in HEK293/GRLuc/MSR1 cells” value is 0.138 nM and the “S/N (highest RLU / RLU in untreated wells), HEK293/GRLuc/MSR1 cells” value worked out at 125.
